ChEMBL document CHEMBL1201862, “PubChem BioAssay data set” (2004)
Active and inactive are the calls of the source.

Columns and labels:
[1] = target: T1, Sentrin-specific protease 8 (Homo sapiens, UniProt Q96LD8); type: functional;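 also: luminescence read-out of SENP8 inhibition, dose-response confirmation following an ultra-high-throughput screen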
T1 sequence (Q96LD8 whole entry): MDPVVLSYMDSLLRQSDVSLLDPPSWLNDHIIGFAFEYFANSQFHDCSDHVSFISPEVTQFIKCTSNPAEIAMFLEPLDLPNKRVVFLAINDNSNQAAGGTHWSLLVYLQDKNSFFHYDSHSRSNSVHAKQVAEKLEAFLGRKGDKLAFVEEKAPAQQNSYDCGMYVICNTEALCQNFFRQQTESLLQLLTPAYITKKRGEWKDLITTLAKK

[2] = target: T2, Runt-related transcription factor 1/Core-binding factor subunit beta (Homo sapiens, UniProt Q01196+Q13951); experiment: Confirmation of compounds inhibiting the binding between the RUNX1 Runt domain and CBFb-SMMHC via a fluorescence resonance energy transfer (FRET) assay. [Related pubchem assays (depositor defined):AID1434, AID1438, AID1496, AID1550, AID1645]; type: protein assay
[3] = target: T2, Runt-related transcription factor 1/Core-binding factor subunit beta; experiment: disruptors of Runt domain/CBFb-SMMHC interaction – biochemical, FRET, Cerulean-Runt, Venus-CBFb-SMMHC, uHTS, […] (AID 1434); type: protein assay
Caspase-3 = target: T3, Caspase-3 (Homo sapiens, UniProt P42574); type: functional;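 also: Dose-response selectivity test against caspase-3 for candidate inhibitors of sentrin-specific proteases (SENPs)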
T3 sequence (P42574 whole entry): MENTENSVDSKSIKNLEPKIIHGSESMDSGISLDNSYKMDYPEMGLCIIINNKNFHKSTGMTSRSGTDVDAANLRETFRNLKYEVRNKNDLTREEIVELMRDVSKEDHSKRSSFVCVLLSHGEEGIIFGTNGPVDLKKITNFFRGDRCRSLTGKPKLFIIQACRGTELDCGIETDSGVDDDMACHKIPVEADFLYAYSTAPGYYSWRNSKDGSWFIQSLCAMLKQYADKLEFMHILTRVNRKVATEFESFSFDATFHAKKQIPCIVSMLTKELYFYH

[4] = target: T4, Sentrin-specific protease 6 (Homo sapiens, UniProt Q9GZR1); type: functional;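 also: Luminescence-based dose-response confirmatory assay of SENP6 inhibition, following up an ultra-high-throughput screen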
T4 sequence (Q9GZR1 whole entry): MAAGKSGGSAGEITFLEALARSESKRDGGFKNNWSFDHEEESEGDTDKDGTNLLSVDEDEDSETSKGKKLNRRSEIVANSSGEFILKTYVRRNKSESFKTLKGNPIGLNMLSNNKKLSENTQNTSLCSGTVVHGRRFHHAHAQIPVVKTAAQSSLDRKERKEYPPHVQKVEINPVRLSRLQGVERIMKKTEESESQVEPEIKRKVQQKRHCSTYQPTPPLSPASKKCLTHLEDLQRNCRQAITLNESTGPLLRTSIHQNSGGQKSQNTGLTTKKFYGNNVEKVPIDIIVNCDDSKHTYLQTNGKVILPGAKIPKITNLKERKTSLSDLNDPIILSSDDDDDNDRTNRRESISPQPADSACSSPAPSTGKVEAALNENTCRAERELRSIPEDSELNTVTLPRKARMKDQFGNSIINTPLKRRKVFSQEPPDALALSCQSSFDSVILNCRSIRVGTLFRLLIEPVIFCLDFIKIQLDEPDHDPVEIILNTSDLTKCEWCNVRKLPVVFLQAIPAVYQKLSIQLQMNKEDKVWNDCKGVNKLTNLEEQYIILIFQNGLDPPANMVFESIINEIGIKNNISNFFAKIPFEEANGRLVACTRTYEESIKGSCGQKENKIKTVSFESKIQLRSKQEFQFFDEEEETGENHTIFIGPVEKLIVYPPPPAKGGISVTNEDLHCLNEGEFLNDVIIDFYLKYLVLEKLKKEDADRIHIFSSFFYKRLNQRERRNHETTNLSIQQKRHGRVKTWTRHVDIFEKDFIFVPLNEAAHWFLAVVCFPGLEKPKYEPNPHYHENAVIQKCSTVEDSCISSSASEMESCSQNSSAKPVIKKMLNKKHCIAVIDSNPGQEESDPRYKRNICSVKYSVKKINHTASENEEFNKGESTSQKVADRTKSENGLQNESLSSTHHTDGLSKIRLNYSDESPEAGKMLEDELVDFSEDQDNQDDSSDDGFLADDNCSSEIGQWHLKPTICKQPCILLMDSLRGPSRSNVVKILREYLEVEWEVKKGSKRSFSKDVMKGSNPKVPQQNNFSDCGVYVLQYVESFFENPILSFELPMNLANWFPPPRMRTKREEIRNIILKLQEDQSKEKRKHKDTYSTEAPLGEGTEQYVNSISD

[5] = target: T2, Runt-related transcription factor 1/Core-binding factor subunit beta; experiment: Runt domain/CBFb-SMMHC interaction disruptors – biochemical, TR-FRET (AID 1438); type: protein assay
[6] = target: T5, Sentrin-specific protease 7 (Homo sapiens, UniProt Q9BQF6); type: functional;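 also: Luminescence-based dose-response confirmation of ultra-high-throughput screening hits, measuring inhibition of SENP7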
T5 sequence (Q9BQF6 whole entry): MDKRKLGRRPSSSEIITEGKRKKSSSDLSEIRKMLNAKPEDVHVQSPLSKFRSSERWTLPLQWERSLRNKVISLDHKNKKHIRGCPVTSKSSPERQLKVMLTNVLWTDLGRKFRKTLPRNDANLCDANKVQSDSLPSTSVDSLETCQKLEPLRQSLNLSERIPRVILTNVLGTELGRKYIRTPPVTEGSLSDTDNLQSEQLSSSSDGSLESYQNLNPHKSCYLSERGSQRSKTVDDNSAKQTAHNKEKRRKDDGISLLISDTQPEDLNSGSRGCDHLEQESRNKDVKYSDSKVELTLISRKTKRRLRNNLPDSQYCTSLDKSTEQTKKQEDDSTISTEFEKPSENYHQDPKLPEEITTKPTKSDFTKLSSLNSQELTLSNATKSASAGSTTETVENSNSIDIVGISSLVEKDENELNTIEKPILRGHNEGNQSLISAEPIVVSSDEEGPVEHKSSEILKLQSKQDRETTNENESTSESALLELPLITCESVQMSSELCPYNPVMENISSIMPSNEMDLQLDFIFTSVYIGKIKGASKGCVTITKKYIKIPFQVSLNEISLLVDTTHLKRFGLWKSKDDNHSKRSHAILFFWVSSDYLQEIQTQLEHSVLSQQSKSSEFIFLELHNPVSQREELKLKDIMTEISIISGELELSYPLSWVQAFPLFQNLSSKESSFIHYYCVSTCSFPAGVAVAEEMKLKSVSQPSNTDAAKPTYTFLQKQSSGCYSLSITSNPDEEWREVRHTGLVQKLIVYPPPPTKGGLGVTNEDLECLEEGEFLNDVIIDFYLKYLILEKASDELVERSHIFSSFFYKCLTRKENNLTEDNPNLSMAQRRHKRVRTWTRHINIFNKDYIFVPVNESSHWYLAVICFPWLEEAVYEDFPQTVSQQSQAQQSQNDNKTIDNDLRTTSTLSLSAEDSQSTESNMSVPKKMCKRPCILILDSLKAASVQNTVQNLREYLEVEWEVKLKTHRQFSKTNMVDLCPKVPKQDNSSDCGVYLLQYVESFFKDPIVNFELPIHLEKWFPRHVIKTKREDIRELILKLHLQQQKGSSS

[7] = Luminescence Cell-Based Dose Response to Identify Activators of 5'UTR Stem-Loop Driven Prion Protein mRNA Translation in H4-C Neuroglioblastoma Cells. [Related pubchem assays: 1829 (Project Summary), 1814 (Primary HTS)]; type: functional
Troponin, cardiac muscle = Troponin, cardiac muscle (Homo sapiens, UniProt P19429+P45379+P63316); experiment: Fluorescence-based biochemical high throughput dose response assay for activators of the calcium sensitivity of cardiac Regulated Thin Filaments (RTF). [Related pubchem assays (depositor defined):AID493008, AID493018, AID504382, AID504383]; type: protein-complex assay
[8] = Luminescence Cell-Based Dose Response to Identify Activators of Luciferase Translation or Activity in H4-C Neuroglioblastoma Cells. [Related pubchem assays: 1829 (Project Summary), 1814 (Primary HTS)]; type: functional
[9] = Luminescence Cell-Based Dose Confirmation to Identify Activators of 5'UTR Stem-Loop Driven Alpha-Synuclein mRNA Translation in H4 Neuroglioblastoma Cells. [Related pubchem assays: 1829 (Project Summary), 1814 (Primary HTS)]; type: functional
H4 = experiment: Luminescence Cell-Based Dose Response HTS to Identify Activators of 5'UTR Stem-Loop Driven Prion Protein mRNA Translation in H4 Neuroglioblastoma Cells. [Related pubchem assays: 1829 (Project Summary), 1814 (Primary HTS)]; type: functional; conditions: Homo sapiens
[10] = target: T6, Zinc finger protein mex-5 (Caenorhabditis elegans, UniProt Q9XUB2); experiment: potency of MEX-5 RNA-binding blockers – biochemical, C. elegans, fluorescence polarization, dose response (AID 1960)
T6 sequence (Q9XUB2 whole entry): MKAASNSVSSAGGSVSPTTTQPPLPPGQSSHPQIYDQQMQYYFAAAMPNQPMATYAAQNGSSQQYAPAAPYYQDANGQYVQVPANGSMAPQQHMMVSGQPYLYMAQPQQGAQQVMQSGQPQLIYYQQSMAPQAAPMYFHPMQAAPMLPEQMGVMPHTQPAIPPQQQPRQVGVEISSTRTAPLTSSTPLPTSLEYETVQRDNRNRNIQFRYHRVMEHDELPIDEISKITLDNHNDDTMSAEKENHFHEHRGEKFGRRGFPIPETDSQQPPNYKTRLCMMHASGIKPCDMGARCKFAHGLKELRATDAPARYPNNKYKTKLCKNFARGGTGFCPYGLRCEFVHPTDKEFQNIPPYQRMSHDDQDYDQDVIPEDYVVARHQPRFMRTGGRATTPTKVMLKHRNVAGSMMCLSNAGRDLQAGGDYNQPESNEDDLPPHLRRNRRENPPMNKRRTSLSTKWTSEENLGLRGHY

[11] = Luminescence Cell-Based Dose Response HTS to Identify Activators of Luciferase Translation or Activity in H4 […] Cells. [Related pubchem assays: 1829 (Project Summary), 1814 (Primary HTS)]; type: functional
[12] = target: T7, RNA-binding protein pos-1 (Caenorhabditis elegans, UniProt G5EF15); experiment: disruptors of C. elegans POS-1 RNA interaction – biochemical, fluorescence polarization, dose response (AID 1964);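 also: purified POS-1 fused to maltose binding protein made in E. coli; potency of compounds blocking POS-1 binding to fluorescent RNA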
T7 sequence (G5EF15 whole entry): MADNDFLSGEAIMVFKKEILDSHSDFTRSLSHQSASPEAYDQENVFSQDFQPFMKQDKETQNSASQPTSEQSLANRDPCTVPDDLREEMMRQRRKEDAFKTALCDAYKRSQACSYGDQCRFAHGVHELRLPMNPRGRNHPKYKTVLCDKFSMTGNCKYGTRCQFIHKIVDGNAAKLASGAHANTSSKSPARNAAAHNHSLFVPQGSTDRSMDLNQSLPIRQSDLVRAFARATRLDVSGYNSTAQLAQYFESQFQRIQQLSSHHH

| Compound | IC50 [1] | IC50 [2] | IC50 [3] | IC50 (Caspase-3) | IC50 [4] | IC50 [5] | IC50 [6] | EC50 [7] | EC50 (Troponin, cardiac muscle) | EC50 [8] | EC50 [9] | EC50 (H4) | EC50 [10] | EC50 [11] | EC50 [12] |
| --- | --- | --- | --- | --- | --- | --- | --- | --- | --- | --- | --- | --- | --- | --- | --- |
| O=S(=O)(Nc1ccc(-c2nc3cccnc3s2)cc1)c1ccc(Cl)s1 | 29.1 µM (active) | 1.87 µM (active) | 5.46 µM (active) | 31.2 µM (active) | 25 µM (active) | 24 µM (active) | 18.8 µM (active) | – | – | – | – | – | – | – | – |
| CN1C(=O)/C(=C/c2ccc(N3CCCCCC3)o2)C(=O)NC1=S | – | – | – | – | – | – | – | 0.325 µM (active) | 2.22 µM (active) | 0.462 µM (active) | 0.206 µM (active) | 39.5 µM (active) | > 300 µM (inconclusive) | < 0.1 µM (active) | > 300 µM (not active) |
